Measured values reported in patent US20200281918A1, “CALCIUM RELEASE-ACTIVATED CALCIUM CHANNEL MODULATORS FOR TREATING HEMATOLOGICAL AND SOLID CANCERS” (Rhizen Pharmaceuticals SA, priority 2017, published 2020).

Legend:
NFkB = assay: Western blotting of markers in Jurkat cells; format: cell-based; conditions: 24 hours, 10, 100, 1000 nM (FIG. 4)
Method: (§1) Cell lines were plated in RPMI media at a pre-determined density in a 6-well plate. After overnight incubation, cells were treated with Compound (A) for 24 hours. Cell lysates were analyzed for the expression of markers by Western Blotting. Gapdh, mTOR and S6 were used as a loading control for NFkB, phospho-mTOR, and phospho-S6 respectively. Lanes: A: Blank; B: 10 nM; C: 100 nM; D: 1000 nM.

phospho-S6 = assay: Western blotting of markers in Jurkat cells; format: cell-based; conditions: 24 hours, 10, 100, 1000 nM (FIG. 4)
Method: as §1

phospho-mTOR = assay: Western blotting of markers in Jurkat cells; format: cell-based; conditions: 24 hours, 10, 100, 1000 nM (FIG. 4)
Method: as §1

A549 cells [1] = assay: Induction of Caspase 3 (Millipore Caspase-3 kit, fluorimetric); format: cell-based; conditions: 48 hours, 10-10,000 nM (FIG. 1)
Method: (§2) NCH-H460, A549 and NCI-H1975 cells were incubated with desired concentrations of the test compound for 48 hours. An equal number of cells per well (0.3×10^6 cells) were used. The increase in apoptosis manifested by an elevation in caspase-3 levels was determined using a Caspase-3 kit from Millipore. Induction of Caspase 3 by Compound (A) was measured fluorimetrically.

NCI-H1975 cells = assay: as above; format: cell-based; conditions: 48 hours, 10-10,000 nM (FIG. 1)
Method: as §2

NCH-H460 cells = assay: as above; format: cell-based; conditions: 48 hours, 10-10,000 nM (FIG. 1)
Method: as §2

A549 cells [2] = assay: Scratch-wound migration assay; format: cell-based; conditions: 10% FBS, 72 hours, 10-10,000 nM (FIG. 2)
Method: A scratch was made to a serum-starved monolayer of A549 cells followed by washing and incubation with a desired concentration of Compound (A) in media with 10% fetal bovine serum (FBS) for 72 hours. The distance between the two edges of the wound was measured and percent inhibition was calculated with respect to a control.

SK-BR-3 = assay: Apoptosis (activated caspase-3 antibody) panel; format: cell-based
Method: (§3) An antibody to activated caspase-3 was used to label cells from early to late stage apoptosis. The concentration of Compound (A) that caused a 2-fold induction in the caspase-3 signal was determined, indicating a significant apoptosis induction.

RKOE6 = assay: Apoptosis (activated caspase-3 antibody) panel; format: cell-based
Method: as §3

Wi38 = assay: Apoptosis (activated caspase-3 antibody) panel; format: cell-based
Method: as §3

RKO-AS45-1 = assay: Apoptosis (activated caspase-3 antibody) panel; format: cell-based
Method: as §3

Calu6 = assay: Apoptosis (activated caspase-3 antibody) panel; format: cell-based
Method: as §3

786-O = assay: Apoptosis (activated caspase-3 antibody) panel; format: cell-based
Method: as §3

A427 = assay: Apoptosis (activated caspase-3 antibody) panel; format: cell-based
Method: as §3

ACHN = assay: Apoptosis (activated caspase-3 antibody) panel; format: cell-based
Method: as §3

G-402 = assay: Apoptosis (activated caspase-3 antibody) panel; format: cell-based
Method: as §3

ARH-77 = assay: Apoptosis (activated caspase-3 antibody) panel; format: cell-based
Method: as §3

DB = assay: Apoptosis (activated caspase-3 antibody) panel; format: cell-based
Method: as §3

HCT-116 = assay: Apoptosis (activated caspase-3 antibody) panel; format: cell-based
Method: as §3

A7 = assay: Apoptosis (activated caspase-3 antibody) panel; format: cell-based
Method: as §3

MDA MB 231 = assay: Apoptosis (activated caspase-3 antibody) panel; format: cell-based
Method: as §3

AsPC-1 = assay: Apoptosis (activated caspase-3 antibody) panel; format: cell-based
Method: as §3

RD = assay: Apoptosis (activated caspase-3 antibody) panel; format: cell-based
Method: as §3

AGS = assay: Apoptosis (activated caspase-3 antibody) panel; format: cell-based
Method: as §3

C32 = assay: Apoptosis (activated caspase-3 antibody) panel; format: cell-based
Method: as §3

U266B1 = assay: Apoptosis (activated caspase-3 antibody) panel; format: cell-based
Method: as §3

T98G = assay: Apoptosis (activated caspase-3 antibody) panel; format: cell-based
Method: as §3

SW1088 = assay: Apoptosis (activated caspase-3 antibody) panel; format: cell-based
Method: as §3

PANC-1 = assay: Apoptosis (activated caspase-3 antibody) panel; format: cell-based
Method: as §3

Hs 578T = assay: Apoptosis (activated caspase-3 antibody) panel; format: cell-based
Method: as §3

PC-3 = assay: Apoptosis (activated caspase-3 antibody) panel; format: cell-based
Method: as §3

NCI-H661 = assay: Apoptosis (activated caspase-3 antibody) panel; format: cell-based
Method: as §3

769-P = assay: Apoptosis (activated caspase-3 antibody) panel; format: cell-based
Method: as §3

SKO-007 = assay: Apoptosis (activated caspase-3 antibody) panel; format: cell-based
Method: as §3

SH-4 = assay: Apoptosis (activated caspase-3 antibody) panel; format: cell-based
Method: as §3

DOHH-2 = assay: Apoptosis (activated caspase-3 antibody) panel; format: cell-based
Method: as §3

MDA MB 468 = assay: Apoptosis (activated caspase-3 antibody) panel; format: cell-based
Method: as §3

[3] = system: normal lung cell line WI-38; assay: Anti-proliferative effect (MTT assay); format: cell-based; conditions: WI-38, MTT, 48-72 hours
Method: (§4) A panel of cancer cell lines representing various different types of cancers were plated in 96-well plates and incubated with desired concentrations of Compound (A) for 48-72 hours. At the end of the incubation period, MTT ((3-(4,5-dimethylthiazol-2-yl)-2,5-diphenyltetrazolium bromide)) was added. The plates were placed on a shaker for 5 minutes to mix the formazan and the optical density at 560 nm was measured using a spectrophotometer. Data were plotted using Graphpad Prism for calculation of the GI50 concentrations.

[4] = system: panel of cancer cell lines; assay: Anti-proliferative effect (MTT assay); format: cell-based; conditions: majority of the cell lines tested, 48-72 hours, MTT (FIG. 3)
Method: as §4

[5] = Body weight in NCI-H460 xenograft model; format: in vivo, female Balb/c nude mice; conditions: oral 30 mg/kg BID, 15 day period, Balb/c nude mice
Method: (§5) The anti-tumor effect of Compound (A) was determined as a single agent in a NCI-H460 human non-small cell lung cancer xenografts model using female Balb/c nude mice. 10^6 cells were injected into the flank region. A week after tumor cell injection, mice either received the vehicle, oral administration of Compound (A) at 30 mg/kg BID or intravenous administration of taxol at 10 mg/kg Q3D (every three days) across a 15 day period. At the end of the study period, animals were sacrificed and the tumors harvested.

[6] = system: NCI-H460 human non-small cell lung tumor xenografts; assay: NCI-H460 human non-small cell lung cancer xenograft model; format: in vivo, female Balb/c nude mice
Method: as §5

[7] = concentration causing 2-fold induction in caspase-3 signal

O=C(Cc1ccc2ncccc2c1)Nc1ccc(-n2nc(C3CC3)cc2C2CC2)cc1 [Compound (A), N-(4-(3,5-dicyclopropyl-1H-pyrazol-1-yl)phenyl)-2-(quinolin-6-yl)acetamide]
NFkB expression (Western blot) (NFkB): dose-dependent reduction
phospho-S6 expression (Western blot) (phospho-S6): dose-dependent reduction
phospho-mTOR expression (Western blot) (phospho-mTOR): dose-dependent reduction
caspase-3 induction (A549 cells [1]): dose-dependent increase
caspase-3 induction (NCI-H1975 cells): dose-dependent increase
caspase-3 induction (NCH-H460 cells): dose-dependent increase
FBS induced migration of A549 cells (A549 cells [2]): dose-dependent reduction
Apoptosis Emax (SK-BR-3): 8.32
G1/S cell cycle block (SK-BR-3): 6.11 µM
Apoptosis 2 Fold Induction (SK-BR-3; [7]): 11.6 µM
Apoptosis Emax (RKOE6): 14.43
G1/S cell cycle block (RKOE6): 4.85 µM
Apoptosis 2 Fold Induction (RKOE6; [7]): 4.64 µM
Apoptosis Emax (Wi38): 0.49
G1/S cell cycle block (Wi38): 8.82 µM
Apoptosis Emax (RKO-AS45-1): 40.99
G1/S cell cycle block (RKO-AS45-1): 3.94 µM
Apoptosis 2 Fold Induction (RKO-AS45-1; [7]): 3.15 µM
Apoptosis Emax (Calu6): 3.34
G1/S cell cycle block (Calu6): 10.5 µM
Apoptosis 2 Fold Induction (Calu6; [7]): 3.73 µM
Apoptosis Emax (786-O): 4.67
G1/S cell cycle block (786-O): 4.4 µM
Apoptosis 2 Fold Induction (786-O; [7]): 10.31 µM
Apoptosis Emax (A427): 16.1
G1/S cell cycle block (A427): 3.52 µM
Apoptosis 2 Fold Induction (A427; [7]): 2.77 µM
Apoptosis Emax (ACHN): 2.86
G1/S cell cycle block (ACHN): 10.3 µM
Apoptosis 2 Fold Induction (ACHN; [7]): 11.23 µM
Apoptosis Emax (G-402): 5.14
G1/S cell cycle block (G-402): 3.74 µM
Apoptosis 2 Fold Induction (G-402; [7]): 3.11 µM
Apoptosis Emax (ARH-77): 5.36
G1/S cell cycle block (ARH-77): 7.02 µM
Apoptosis 2 Fold Induction (ARH-77; [7]): 30.74 µM
Apoptosis Emax (DB): 16.8
G1/S cell cycle block (DB): 7.03 µM
Apoptosis 2 Fold Induction (DB; [7]): 4.08 µM
Apoptosis Emax (HCT-116): 20.36
G1/S cell cycle block (HCT-116): 1.89 µM
Apoptosis 2 Fold Induction (HCT-116; [7]): 2.97 µM
Apoptosis Emax (A7): 55.74
G1/S cell cycle block (A7): 2.78 µM
Apoptosis 2 Fold Induction (A7; [7]): 2.22 µM
Apoptosis Emax (MDA MB 231): 4.35
Apoptosis 2 Fold Induction (MDA MB 231; [7]): 18.4 µM
Apoptosis Emax (AsPC-1): 2.07
G1/S cell cycle block (AsPC-1): 3.64 µM
Apoptosis Emax (RD): 3.03
G1/S cell cycle block (RD): 7.08 µM
Apoptosis 2 Fold Induction (RD; [7]): 11.45 µM
Apoptosis Emax (AGS): 26.62
G1/S cell cycle block (AGS): 3.16 µM
Apoptosis 2 Fold Induction (AGS; [7]): 5.04 µM
Apoptosis Emax (C32): 4.7
G1/S cell cycle block (C32): 10.7 µM
Apoptosis 2 Fold Induction (C32; [7]): 80.52 µM
Apoptosis Emax (U266B1): 4.88
G1/S cell cycle block (U266B1): 3.56 µM
Apoptosis 2 Fold Induction (U266B1; [7]): 11.11 µM
Apoptosis Emax (T98G): 21.74
G1/S cell cycle block (T98G): 41.3 µM
Apoptosis 2 Fold Induction (T98G; [7]): 53.96 µM
Apoptosis Emax (SW1088): 8.54
G1/S cell cycle block (SW1088): 33 µM
Apoptosis 2 Fold Induction (SW1088; [7]): 75.51 µM
Apoptosis Emax (PANC-1): 11.49
G1/S cell cycle block (PANC-1): 7.32 µM
Apoptosis 2 Fold Induction (PANC-1; [7]): 8.83 µM
Apoptosis Emax (Hs 578T): 1.19
G1/S cell cycle block (Hs 578T): 4.56 µM
Apoptosis Emax (PC-3): 12.31
G1/S cell cycle block (PC-3): 8.13 µM
Apoptosis 2 Fold Induction (PC-3; [7]): 2.05 µM
Apoptosis Emax (NCI-H661): 13.23
G1/S cell cycle block (NCI-H661): 2.8 µM
Apoptosis 2 Fold Induction (NCI-H661; [7]): 17.64 µM
Apoptosis Emax (769-P): 10.3
G1/S cell cycle block (769-P): 4.82 µM
Apoptosis 2 Fold Induction (769-P; [7]): 24.71 µM
Apoptosis Emax (SKO-007): 15.45
G1/S cell cycle block (SKO-007): 5.2 µM
Apoptosis 2 Fold Induction (SKO-007; [7]): 6.42 µM
Apoptosis Emax (SH-4): 72.67
G1/S cell cycle block (SH-4): 16.6 µM
Apoptosis 2 Fold Induction (SH-4; [7]): 15.59 µM
Apoptosis Emax (DOHH-2): 6.13
G1/S cell cycle block (DOHH-2): 3.23 µM
Apoptosis 2 Fold Induction (DOHH-2; [7]): 3.03 µM
Apoptosis Emax (MDA MB 468): 8.86
G1/S cell cycle block (MDA MB 468): 7.81 µM
Apoptosis 2 Fold Induction (MDA MB 468; [7]): 3.02 µM
growth of normal lung cell line WI-38 [3]: did not affect growth
GI50 [4]: 300 to 3000 nM
mice body weight [5]: did not affect the mice body weight
tumor growth inhibition (TGI) value ([6]; day 15, oral 30 mg/kg BID): 38.3%
inhibition of tumor growth ([6]; oral 30 mg/kg BID, 15 day period): significant inhibition of tumor growth

CC(=O)O[C@H]1C(=O)[C@@]2(C)[C@H]([C@H](OC(=O)c3ccccc3)[C@]3(O)C[C@H](OC(=O)[C@H](O)[C@@H](NC(=O)c4ccccc4)c4ccccc4)C(C)=C1C3(C)C)[C@]1(OC(C)=O)CO[C@@H]1C[C@@H]2O [taxol, reference compound]
tumor growth inhibition (TGI) value ([6]; day 15, intravenous 10 mg/kg Q3D): 36.7%
